Earlier results as cited in US7030077B2, “Detergent compositions” (Unilever Home and Personal Care USA, a division of Conopco, …, priority 2002, dated 2006).
Where two headings read alike, the source gives them in different places.

[1] = other common materials, by contrast, at 20° C.

SMILES	Water Solubility (g/100 g) [1] [g/100 g]	Water Solubility (g/100 g) (highly water-soluble materials, grams of solid to form a saturated solution in 100 g of deionised water at 20° C.)
O=P(O)(O)OP(=O)(O)OP(=O)(O)O [Sodium tripolyphosphate anhydrous]	15	
O=BO[O-].[Na+] [Sodium perborate anhydrous]	3.7	
NC(N)=O [Urea]		>100
